From publication PMC10484568 (Chemical communications (Cambridge, England), 2019)
Converted amounts (≈) assume the structure as drawn. Where a SMILES comes first, the peptide text is derived from it. Bridges are numbered along the chain shown (N, C = ends). [ ]: non-standard residue; d: D form. The star is where a group is joined. X1 = CC[C@H](C)CCCCC(=O)*; Dab = NCC[C@H](N)C(=O)O

Tests used:
Assay type in all cases: cell-based
MRSE = test system: MRSE
MRSA = test system: MRSA
Hemolytic activity = assay: Hemolytic activity
P. aeruginosa = test system: P. aeruginosa
E. coli = test system: E. coli

## CC[C@H](C)CCCCC(=O)N[C@@H](CCN)C(=O)N[C@H](C(=O)N[C@@H](CCN)C(=O)N[C@H]1CCNC(=O)[C@H]([C@@H](C)O)NC(=O)[C@H](CCN)NC(=O)[C@H](CCN)NC(=O)[C@H](CC(C)C)NC(=O)[C@@H](CC(C)C)NC(=O)[C@H](CCN)NC1=O)[C@@H](C)O [Colistin, colistin] (X1-[Dab]T[Dab][Dab][Dab][dL]L[Dab][Dab]T; lactam 4-C (inferred); N-terminus assumed)
MRSE
  MIC MRSE (Gram positive): > 50 µg/mL
MRSA
  Activity against MRSA (in words): not active
MRSA; multidrug resistant strain
  MIC MRSA (Gram positive): >50 µg/mL
Hemolytic activity
  HC50: > 250 µg/mL
P. aeruginosa
  MIC P. aeruginosa (Gram negative): 0.5 µg/mL (≈ 0.428 µM)
E. coli
  MIC E. coli (Gram negative): 0.5 µg/mL (≈ 0.428 µM)
